# Where two headings read alike, the source gives them in different places.
# Target: T1, STAT6 (Homo sapiens, UniProt P42226)
# T1 construct: stably transfected HaCaT keratinocyte cell line, which expresses NanoLuc luciferase reporter gene under the transcriptional control of the STAT6 responsive promoter; endogenous in cells; host or cells: HaCaT keratinocyte reporter cell line (stably transfected with a NanoLuc reporter)
# T1 sequence (P42226 1-847): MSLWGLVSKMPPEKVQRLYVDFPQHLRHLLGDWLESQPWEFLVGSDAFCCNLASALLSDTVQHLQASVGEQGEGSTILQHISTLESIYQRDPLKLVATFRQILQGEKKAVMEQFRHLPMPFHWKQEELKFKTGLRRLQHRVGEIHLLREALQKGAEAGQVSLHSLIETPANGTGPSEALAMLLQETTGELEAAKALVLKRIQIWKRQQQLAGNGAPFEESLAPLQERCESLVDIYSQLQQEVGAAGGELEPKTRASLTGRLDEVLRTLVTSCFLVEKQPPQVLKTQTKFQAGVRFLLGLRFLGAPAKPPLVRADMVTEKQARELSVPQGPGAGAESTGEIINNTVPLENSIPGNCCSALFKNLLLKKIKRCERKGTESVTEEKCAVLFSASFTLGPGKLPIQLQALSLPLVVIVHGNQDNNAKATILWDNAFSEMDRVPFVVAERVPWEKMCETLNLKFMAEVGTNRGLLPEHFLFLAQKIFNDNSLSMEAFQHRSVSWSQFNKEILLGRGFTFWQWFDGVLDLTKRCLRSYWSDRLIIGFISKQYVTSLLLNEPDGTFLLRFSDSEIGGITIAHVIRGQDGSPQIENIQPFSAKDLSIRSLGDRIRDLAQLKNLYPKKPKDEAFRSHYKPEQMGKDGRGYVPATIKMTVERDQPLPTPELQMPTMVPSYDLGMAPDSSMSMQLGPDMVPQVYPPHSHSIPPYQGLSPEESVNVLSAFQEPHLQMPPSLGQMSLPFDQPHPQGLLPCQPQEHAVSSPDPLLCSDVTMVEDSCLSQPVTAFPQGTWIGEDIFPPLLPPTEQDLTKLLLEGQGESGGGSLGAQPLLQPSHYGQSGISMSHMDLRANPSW
# Test: STAT6 Reporter Luciferase Assay (IL-13 stimulated HaCaT keratinocyte NanoLuc reporter cells)
# Type: cell-based
# Settings: read-out: Reporter EC50
# Summary of the method: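 HaCaT cells stably carrying a NanoLuc reporter driven by the STAT6-responsive IL-13Ra2 promoter were preincubated with compounds for 2 h at 37 °C in 2% FBS medium. Cells were then stimulated with 0.12 nM IL-13 for 4 h, and luminescence was read after Nano-Glo substrate. Compounds ran as 11-point 4-fold dilutions in duplicate.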
# [1] = IL-13 stimulated HaCaT STAT6 NanoLuc reporter cells
Compound,EC50 [1] [nM],"EC50 (STAT6 NanoLuc luciferase reporter, IL-13 stimulated HaCaT keratinocyte cells) [nM]"
"CC(C)n1nc(C(=O)NCc2ccc(NC(=O)N(C)C)cc2)c2c1CCN(c1ccc(C(=O)N3CCC4(CCC(=O)N4C)CC3)cn1)C2 [Example 564, N-(4-(3,3-dimethylureido)benzyl)-1-isopropyl-5-(5-(1-methyl-2-oxo-1,8-diazaspiro[4.5]decane-8-carbonyl)pyridin-2-yl)-4,5,6,7-tetrahydro-1H-pyrazolo[4,3-c]pyridine-3-carboxamide]",223,
"COCCN1CCC(CN(C)C(=O)c2ccc(N3Cc4c(C(=O)NCc5ccc(NC(=O)N(C)C)cc5)nn(C(C)C)c4[C@@H](C)C3)cc2)CC1 [Example 565, (S)-N-(4-(3,3-dimethylureido)benzyl)-1-isopropyl-5-(4-(((1-(2-methoxyethyl)piperidin-4-yl)methyl)(methyl)carbamoyl)phenyl)-7-methyl-4,5,6,7-tetrahydro-1H-pyrazolo[4,3-c]pyridine-3-carboxamide]",5,
"CC(C)n1nc(C(=O)NCc2ccc(NC(=O)N3CC[C@H](N(C)C)C3)cc2)c2c1[C@@H](C)CN(c1ccc(C(=O)N(C)C)cc1)C2 [Example 747, (S)-N-(4-((S)-3-(dimethylamino)pyrrolidine-1-carboxamido)benzyl)-5-(4-(dimethylcarbamoyl)phenyl)-1-isopropyl-7-methyl-4,5,6,7-tetrahydro-1H-pyrazolo[4,3-c]pyridine-3-carboxamide]",1,
"CC(C)n1nc(C(=O)NCc2ccc(NC(=O)NC3(C)CNC3)c(F)c2)c2c1[C@@H](C)CN(c1ccc(C(=O)N(C)C)cc1)C2 [Example 685, (S)-5-(4-(dimethylcarbamoyl)phenyl)-N-(3-fluoro-4-(3-(3-methylazetidin-3-yl)ureido)benzyl)-1-isopropyl-7-methyl-4,5,6,7-tetrahydro-1H-pyrazolo[4,3-c]pyridine-3-carboxamide]",2,
"CC(C)n1nc(C(=O)NCc2ccc(NC(=O)N3CCN(C)[C@H](C)C3)c(F)c2)c2c1[C@@H](C)CN(c1ccc(C(=O)N(C)C)cc1)C2 [Example 686, (S)-5-(4-(dimethylcarbamoyl)phenyl)-N-(4-((R)-3,4-dimethylpiperazine-1-carboxamido)-3-fluorobenzyl)-1-isopropyl-7-methyl-4,5,6,7-tetrahydro-1H-pyrazolo[4,3-c]pyridine-3-carboxamide]",1,
"CC(C)n1nc(C(=O)NCc2ccc(NC(=O)N3CCCC(N(C)C)C3)cc2)c2c1CCN(c1ccc(C(=O)N(C)C)cn1)C2 (stereo not shown) [Example 151, N-(4-(3-(dimethylamino)piperidine-1-carboxamido)benzyl)-5-(5-(dimethylcarbamoyl)pyridin-2-yl)-1-isopropyl-4,5,6,7-tetrahydro-1H-pyrazolo[4,3-c]pyridine-3-carboxamide]",,9
"CC(C)n1nc(C(=O)NCc2ccc(NC(=O)N3CCN(C)CC3)cc2)c2c1[C@@H](C)CN(c1ccc(-c3nncn3C)cn1)C2 [Example 658, (S)-1-isopropyl-7-methyl-5-(5-(4-methyl-4H-1,2,4-triazol-3-yl)pyridin-2-yl)-N-(4-(4-methylpiperazine-1-carboxamido)benzyl)-4,5,6,7-tetrahydro-1H-pyrazolo[4,3-c]pyridine-3-carboxamide]",4,
"CC(C)n1nc(C(=O)NCc2ccc(NC(=O)N(C)C)cc2)c2c1CCN(c1ccc(C(=O)N3CCc4cnc(O)cc4C3)cn1)C2 [Example 412, N-(4-(3,3-dimethylureido)benzyl)-5-(5-(7-hydroxy-1,2,3,4-tetrahydro-2,6-naphthyridine-2-carbonyl)pyridin-2-yl)-1-isopropyl-4,5,6,7-tetrahydro-1H-pyrazolo[4,3-c]pyridine-3-carboxamide]",396,
"CC(C)n1nc(C(=O)NCc2ccc(NC(=O)N(C)CCC(=O)O)c(F)c2)c2c1[C@@H](C)CN(c1ccc(C(=O)N(C)C)cc1)C2 [Example 733, (S)-3-(3-(4-((5-(4-(dimethylcarbamoyl)phenyl)-1-isopropyl-7-methyl-4,5,6,7-tetrahydro-1H-pyrazolo[4,3-c]pyridine-3-carboxamido)methyl)-2-fluorophenyl)-1-methylureido)propanoic acid]",342,
"Cc1cnc2n1CCN(C(=O)c1ccc(N3CCc4c(c(C(=O)NCc5ccc(NC(=O)N(C)C)cc5)nn4C(C)C)C3)nc1)C2 [Example 404, N-(4-(3,3-dimethylureido)benzyl)-1-isopropyl-5-(5-(3-methyl-5,6,7,8-tetrahydroimidazo[1,2-a]pyrazine-7-carbonyl)pyridin-2-yl)-4,5,6,7-tetrahydro-1H-pyrazolo[4,3-c]pyridine-3-carboxamide]",40,
"CC(C)n1nc(C(=O)NCc2ccc(NC(=O)N3CC4CC4C3)cc2)c2c1CCN(c1ccc(C(=O)N(C)C)cn1)C2 (stereo not shown) [Example 186, N-(4-(3-azabicyclo[3.1.0]hexane-3-carboxamido)benzyl)-5-(5-(dimethylcarbamoyl)pyridin-2-yl)-1-isopropyl-4,5,6,7-tetrahydro-1H-pyrazolo[4,3-c]pyridine-3-carboxamide]",10,
"CC(C)n1nc(C(=O)NCc2ccc(NC(=O)N3CCC(C)(N(C)C)C3)cc2)c2c1[C@@H](C)CN(c1ccc(C(=O)N(C)C)cc1)C2 (stereo partly drawn) [Example 752, (7S)-N-(4-(3-(dimethylamino)-3-methylpyrrolidine-1-carboxamido)benzyl)-5-(4-(dimethylcarbamoyl)phenyl)-1-isopropyl-7-methyl-4,5,6,7-tetrahydro-1H-pyrazolo[4,3-c]pyridine-3-carboxamide]",2,
"CC(C)n1nc(C(=O)NCc2ccc(NC(=O)N(C)C)cc2)c2c1CCN(c1ccc(C(=O)N3CC(C)(O)C3)cn1)C2 [Example 244, N-(4-(3,3-dimethylureido)benzyl)-5-(5-(3-hydroxy-3-methylazetidine-1-carbonyl)pyridin-2-yl)-1-isopropyl-4,5,6,7-tetrahydro-1H-pyrazolo[4,3-c]pyridine-3-carboxamide]",196,
"Cc1cc2n(n1)CCN(C(=O)c1ccc(N3CCc4c(c(C(=O)NCc5ccc(NC(=O)N(C)C)cc5)nn4C(C)C)C3)nc1)C2 [Example 377, N-(4-(3,3-dimethylureido)benzyl)-1-isopropyl-5-(5-(2-methyl-4,5,6,7-tetrahydropyrazolo[1,5-a]pyrazine-5-carbonyl)pyridin-2-yl)-4,5,6,7-tetrahydro-1H-pyrazolo[4,3-c]pyridine-3-carboxamide]",21,
"CC(C)n1nc(C(=O)NCc2ccc(NC(=O)N(C)C)cc2)c2c1CCN(c1ccc(C(=O)N3CC(O)C3)cn1)C2 [Example 215, N-(4-(3,3-dimethylureido)benzyl)-5-(5-(3-hydroxyazetidine-1-carbonyl)pyridin-2-yl)-1-isopropyl-4,5,6,7-tetrahydro-1H-pyrazolo[4,3-c]pyridine-3-carboxamide]",276,
"CC(C)n1nc(C(=O)NCc2ccc(NC(=O)N3CCN(C)CC3)cc2)c2c1[C@@H](C)CN(c1ccc(-c3nccn3C3CC3)cn1)C2 [Example 653, (S)-5-(5-(1-cyclopropyl-1H-imidazol-2-yl)pyridin-2-yl)-1-isopropyl-7-methyl-N-(4-(4-methylpiperazine-1-carboxamido)benzyl)-4,5,6,7-tetrahydro-1H-pyrazolo[4,3-c]pyridine-3-carboxamide]",3,
"COCC1(N)CCN(C(=O)Nc2ccc(CNC(=O)c3nn(C(C)C)c4c3CN(c3ccc(C(=O)N(C)C)cc3)C[C@@H]4C)cc2)C1 (single isomer, unassigned) [Example 673, (S)-N-(4-((R*)-3-amino-3-(methoxymethyl)pyrrolidine-1-carboxamido)benzyl)-5-(4-(dimethylcarbamoyl)phenyl)-1-isopropyl-7-methyl-4,5,6,7-tetrahydro-1H-pyrazolo[4,3-c]pyridine-3-carboxamide]",2,
"COc1nc(N2CCc3c(c(C(=O)NCc4ccc(NC(=O)N(C)C)cc4)nn3C(C)C)C2)ccc1[C@]1(C)CNC(=O)C1 [Example 202, (R)-N-(4-(3,3-dimethylureido)benzyl)-1-isopropyl-5-(6-methoxy-5-(3-methyl-5-oxopyrrolidin-3-yl)pyridin-2-yl)-4,5,6,7-tetrahydro-1H-pyrazolo[4,3-c]pyridine-3-carboxamide]",8080,
"CC(C)n1nc(C(=O)NCc2ccc(NC(=O)N(C)C)cc2)c2c1CCN(c1ccc(C(=O)N3CCCC3CO)cn1)C2 (racemic) [Example 208, rac-(R)-N-(4-(3,3-dimethylureido)benzyl)-5-(5-(2-(hydroxymethyl)pyrrolidine-1-carbonyl)pyridin-2-yl)-1-isopropyl-4,5,6,7-tetrahydro-1H-pyrazolo[4,3-c]pyridine-3-carboxamide]",535,

# — patent US20250320213A1, “Nitrogen-Containing Heterocyclic Compounds” (Pfizer Inc., priority 2024, published 2025)
